# Patent publication US20030065292A1, “Ozonated medical devices and methods of using ozone to prevent complications from indwelling medical devices” (priority 2001, published 2003)
# Tests used:
# [1] = system: Escherichia coli strain 2131; assay: Ozone killing of microorganisms in solution; format: cell-based; settings: 25° C.
# Method: A clinical isolate of Escherichia coli strain 2131 that had caused catheter-related infection was used. The organism was grown overnight in tryptic soy broth (TSB) at 37° C., then diluted to a concentration of 10^4 cfU/ml of normal saline. A 120 ml aliquot of the 10^4 cfU/ml working bacterial suspension was placed in each of two beakers at 25° C.: (1) In the experimental arm, ozone was bubbled into the bacterial suspension; (2) In the control arm, no ozone was bubbled. Four hours later, three samples of the bacterial suspension in each beaker and serial dilutions were inoculated onto blood agar plates. Colony counts were determined at 24 hours after incubation of the agar plates at 37° C. The following table summarizes the results of cultures: […]
# [2] = system: Escherichia coli strain 2131; assay: Ozone killing of microorganisms on catheter surfaces; format: cell-based
# Method: A clinical isolate of Escherichia coli strain 2131 that had caused catheter-related infection was used. The organism was grown overnight in tryptic soy broth (TSB) at 37° C., then diluted to a concentration of 10^4 cfu/ml of TSB. The lumens of four 7-french, 20 -cm, triple-lumen polyurethane central venous catheters were filled with this working bacterial suspension and the catheters were then incubated at 25° C. for 4 hours. After draining the bacterial suspension from the lumens of catheters, the lumens were flushed with 1 ml of sterile normal saline. Using a closed dynamic flow system, the lumens of the four catheters were continually perfused for 4 hours at 25° C. with a recirculating total volume of 3 ml of sterile normal saline at a flow rate of 0.1 ml/minute. Ozone was continuously bubbled into the beaker containing the saline perfusing the lumens of two catheters (experimental arm), but no ozone was bubbled into the beaker containing the saline perfusing the lumens of the other two catheters (control arm). Four hours later, two 2 -cm segments from each of the four catheters (two in the experimental arm, and two in the control arm) were cultured onto blood agar plates using the sonication technique. Samples of the saline running through the experimental and control catheters were also inoculated onto blood agar plates. Colony counts were determined at 24 hours after incubation of the agar plates at 37° C. The following table summarizes the results of cultures of catheter segments: […]
compound,measurement,setting,value
O=[O+][O-] [ozone],Number of E. coli colony forming units per ml (cfu/ml),"[1]; experimental arm: ozone bubbled into 10^4 cfu/ml bacterial suspension in normal saline, sampled four hours later, colony counts at 24 hours",0 cfu/ml
same,Ozone killing of E. coli in solution (result in words),"[1]; ozone bubbled into bacterial suspension, 4 hours",kills E. coli in solution
same,Number of E. coli colony forming units cultured from 2-cm catheter segments,"[2]; experimental arm: catheter lumens perfused 4 hours at 25° C. with saline continuously bubbled with ozone, sonication technique",0 colony forming units
same,Ozone killing of E. coli adhered to catheter surface (result in words),[2]; lumens perfused 4 hours with ozone-bubbled saline,kills E. coli that has adhered to the catheter surface
same,Concentration of E. coli in the saline solution used to perfuse the infected lumens of catheters,"[2]; ozone-bubbled saline after 4 hours perfusion, control 42×10^2 cfu/ml",9×10^2 cfu/ml
